# Data: ChEMBL document CHEMBL1201862, “PubChem BioAssay data set” (2004)
# The source made the active and inactive calls.
# What was measured:
# Large T antigen = Large T antigen (Simian virus 40, UniProt P03070); type: functional, Betapolyomavirus macacae;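 also: Confirmatory-stage PubChem screen for compounds that inhibit SV40 T antigen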
# [1] = molecular target: Intestinal-type alkaline phosphatase (Homo sapiens, UniProt P09923); assay: activation of human intestinal alkaline phosphatase – biochemical, dose response (AID 488873); type: functional
# Intestinal-type alkaline phosphatase (Homo sapiens, UniProt P09923), sequence (P09923 whole entry): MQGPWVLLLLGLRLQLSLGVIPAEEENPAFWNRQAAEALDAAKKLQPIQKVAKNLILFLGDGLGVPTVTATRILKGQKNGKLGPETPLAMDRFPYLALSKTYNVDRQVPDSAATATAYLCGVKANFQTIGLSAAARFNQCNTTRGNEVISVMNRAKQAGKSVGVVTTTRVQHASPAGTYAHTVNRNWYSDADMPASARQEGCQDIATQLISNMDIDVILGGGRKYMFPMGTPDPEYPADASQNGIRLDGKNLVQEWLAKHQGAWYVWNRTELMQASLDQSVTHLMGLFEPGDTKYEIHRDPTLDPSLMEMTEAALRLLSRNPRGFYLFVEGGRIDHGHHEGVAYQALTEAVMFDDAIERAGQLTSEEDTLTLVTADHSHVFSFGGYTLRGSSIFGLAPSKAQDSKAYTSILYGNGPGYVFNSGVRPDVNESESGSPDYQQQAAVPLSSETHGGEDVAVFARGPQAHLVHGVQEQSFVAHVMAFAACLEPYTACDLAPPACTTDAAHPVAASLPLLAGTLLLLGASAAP
# [2] = molecular target: FAD-linked sulfhydryl oxidase ALR (Homo sapiens, UniProt P55789); assay: ALR-catalysed DTT oxidation blockers – biochemical, H2O2 detection, luminescence, cherry-pick, dose response (AID 493248)
# FAD-linked sulfhydryl oxidase ALR, sequence (P55789 whole entry): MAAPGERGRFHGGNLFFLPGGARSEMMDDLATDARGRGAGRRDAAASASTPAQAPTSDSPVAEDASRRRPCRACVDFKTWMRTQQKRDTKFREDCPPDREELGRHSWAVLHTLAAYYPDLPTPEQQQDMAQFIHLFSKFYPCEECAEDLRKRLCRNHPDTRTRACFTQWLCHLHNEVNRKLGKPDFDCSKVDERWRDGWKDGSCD
# [3] = molecular target: Intestinal-type alkaline phosphatase (Mus musculus, UniProt P24822); assay: mouse intestinal alkaline phosphatase activators, dose response, biochemical, luminescence, uHTS hits (AID 488783); type: functional
# Intestinal-type alkaline phosphatase (Mus musculus, UniProt P24822), sequence (P24822 whole entry): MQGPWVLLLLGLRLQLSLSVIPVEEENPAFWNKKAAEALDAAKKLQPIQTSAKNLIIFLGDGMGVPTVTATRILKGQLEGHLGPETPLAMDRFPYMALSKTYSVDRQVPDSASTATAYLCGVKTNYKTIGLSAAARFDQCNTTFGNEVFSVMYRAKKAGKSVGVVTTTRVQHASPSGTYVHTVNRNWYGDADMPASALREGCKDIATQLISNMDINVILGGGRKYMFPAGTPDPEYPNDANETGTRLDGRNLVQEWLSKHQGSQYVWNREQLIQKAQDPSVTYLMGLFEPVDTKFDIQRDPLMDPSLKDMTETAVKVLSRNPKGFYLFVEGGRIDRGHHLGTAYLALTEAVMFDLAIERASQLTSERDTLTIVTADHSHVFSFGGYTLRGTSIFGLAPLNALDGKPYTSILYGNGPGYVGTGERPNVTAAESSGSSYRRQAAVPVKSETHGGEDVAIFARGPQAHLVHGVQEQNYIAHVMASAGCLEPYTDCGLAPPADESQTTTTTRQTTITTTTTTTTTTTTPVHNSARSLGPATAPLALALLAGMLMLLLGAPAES
# [4] = molecular target: T1, Alkaline phosphatase, tissue-nonspecific isozyme (Homo sapiens, UniProt P05186); assay: activation of tissue-nonspecific alkaline phosphatase – biochemical, TNAP isozyme, mouse IAP uHTS hits, selectivity assay for mouse IAP activator project, dose response (AID 488880); type: functional
# T1 sequence (P05186 whole entry): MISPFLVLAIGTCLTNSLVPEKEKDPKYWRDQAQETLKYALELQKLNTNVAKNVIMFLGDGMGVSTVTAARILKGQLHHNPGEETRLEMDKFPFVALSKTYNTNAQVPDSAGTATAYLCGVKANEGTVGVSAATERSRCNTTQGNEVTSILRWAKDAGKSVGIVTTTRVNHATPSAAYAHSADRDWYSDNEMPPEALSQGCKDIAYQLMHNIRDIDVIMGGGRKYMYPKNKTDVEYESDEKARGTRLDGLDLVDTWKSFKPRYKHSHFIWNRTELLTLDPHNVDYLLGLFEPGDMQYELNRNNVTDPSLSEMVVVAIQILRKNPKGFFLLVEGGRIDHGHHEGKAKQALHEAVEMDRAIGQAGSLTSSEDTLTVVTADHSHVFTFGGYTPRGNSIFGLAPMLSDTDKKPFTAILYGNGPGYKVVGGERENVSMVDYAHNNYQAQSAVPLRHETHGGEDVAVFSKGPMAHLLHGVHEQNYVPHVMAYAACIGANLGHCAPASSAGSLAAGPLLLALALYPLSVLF
# [5] = molecular target: Benomyl/methotrexate resistance protein (Candida albicans, UniProt P28873); assay: Candida albicans Mdr1 pump inhibition curves – singleplex, Cherry Pick1 hits, dose response (AID 588608); type: functional
# [6] = molecular target: Multidrug resistance protein CDR2 (Candida albicans (strain SC5314 / ATCC MYA-2876) (Yeast), UniProt P78595); assay: inhibition of Nile Red efflux via Candida CDR2 – S. cerevisiae AD1-8u, singleplex, Cherry Pick1 hits, dose response (AID 588604); type: functional
# Multidrug resistance protein CDR2, sequence (P78595 whole entry): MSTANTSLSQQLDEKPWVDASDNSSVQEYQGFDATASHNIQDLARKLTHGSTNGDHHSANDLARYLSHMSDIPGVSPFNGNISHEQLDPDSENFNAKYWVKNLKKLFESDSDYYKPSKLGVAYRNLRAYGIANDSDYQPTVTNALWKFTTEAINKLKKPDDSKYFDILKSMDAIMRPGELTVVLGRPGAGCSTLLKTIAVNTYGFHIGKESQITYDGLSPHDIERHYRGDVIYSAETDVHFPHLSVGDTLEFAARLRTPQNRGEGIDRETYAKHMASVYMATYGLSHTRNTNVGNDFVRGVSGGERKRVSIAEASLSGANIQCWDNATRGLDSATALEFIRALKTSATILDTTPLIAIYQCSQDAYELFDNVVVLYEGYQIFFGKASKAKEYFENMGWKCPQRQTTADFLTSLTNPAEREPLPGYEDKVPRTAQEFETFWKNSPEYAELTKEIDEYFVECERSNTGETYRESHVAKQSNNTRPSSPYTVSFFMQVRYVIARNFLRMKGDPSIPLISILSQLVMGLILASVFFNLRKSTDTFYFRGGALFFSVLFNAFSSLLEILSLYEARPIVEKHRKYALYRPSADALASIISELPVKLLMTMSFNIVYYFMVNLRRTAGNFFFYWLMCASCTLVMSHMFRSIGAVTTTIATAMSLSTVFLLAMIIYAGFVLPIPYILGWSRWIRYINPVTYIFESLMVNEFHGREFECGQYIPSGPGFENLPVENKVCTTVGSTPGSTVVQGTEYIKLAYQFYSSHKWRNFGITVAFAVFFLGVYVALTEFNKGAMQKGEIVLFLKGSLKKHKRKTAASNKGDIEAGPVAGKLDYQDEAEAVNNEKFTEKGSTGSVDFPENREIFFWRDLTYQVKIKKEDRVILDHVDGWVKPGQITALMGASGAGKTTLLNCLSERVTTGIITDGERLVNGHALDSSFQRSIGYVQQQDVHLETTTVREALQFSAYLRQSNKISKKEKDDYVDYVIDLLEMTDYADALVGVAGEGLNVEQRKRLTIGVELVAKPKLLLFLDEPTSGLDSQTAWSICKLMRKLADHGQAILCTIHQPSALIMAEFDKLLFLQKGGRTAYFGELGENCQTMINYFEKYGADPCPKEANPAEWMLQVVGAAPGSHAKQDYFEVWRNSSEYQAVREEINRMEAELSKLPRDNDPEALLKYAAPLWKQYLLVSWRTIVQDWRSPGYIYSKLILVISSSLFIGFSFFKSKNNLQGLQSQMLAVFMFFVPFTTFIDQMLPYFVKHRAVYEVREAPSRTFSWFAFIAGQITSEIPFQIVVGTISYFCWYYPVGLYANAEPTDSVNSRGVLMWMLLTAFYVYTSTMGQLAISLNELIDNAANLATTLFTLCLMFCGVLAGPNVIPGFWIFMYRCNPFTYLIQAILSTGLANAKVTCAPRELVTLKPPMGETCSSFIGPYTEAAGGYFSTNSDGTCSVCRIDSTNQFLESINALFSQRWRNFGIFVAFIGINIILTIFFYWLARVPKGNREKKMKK
# [7] = molecular target: 26S proteasome non-ATPase regulatory subunit 14 (Homo sapiens, UniProt O00487); assay: inhibition of proteasome subunit RPN11 – biochemical, fluorescence polarization, uHTS hits, confirmation (AID 602368); type: functional
# 26S proteasome non-ATPase regulatory subunit 14, sequence (O00487 whole entry): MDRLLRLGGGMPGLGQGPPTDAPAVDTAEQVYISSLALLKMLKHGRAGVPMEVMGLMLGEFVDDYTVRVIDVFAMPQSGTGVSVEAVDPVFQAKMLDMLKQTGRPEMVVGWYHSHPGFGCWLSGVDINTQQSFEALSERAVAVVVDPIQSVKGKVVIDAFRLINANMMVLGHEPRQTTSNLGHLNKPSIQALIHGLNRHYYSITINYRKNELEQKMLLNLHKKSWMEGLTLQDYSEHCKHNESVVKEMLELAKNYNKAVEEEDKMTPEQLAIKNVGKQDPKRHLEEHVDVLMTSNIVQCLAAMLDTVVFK
# [8] = molecular target: 72 kDa type IV collagenase (Homo sapiens, UniProt P08253); assay: Dose Response validation of uHTS RPN11 inhibitor hits using a MMP-2 Fluorescence assay.; type: functional
# 72 kDa type IV collagenase, sequence (P08253 whole entry): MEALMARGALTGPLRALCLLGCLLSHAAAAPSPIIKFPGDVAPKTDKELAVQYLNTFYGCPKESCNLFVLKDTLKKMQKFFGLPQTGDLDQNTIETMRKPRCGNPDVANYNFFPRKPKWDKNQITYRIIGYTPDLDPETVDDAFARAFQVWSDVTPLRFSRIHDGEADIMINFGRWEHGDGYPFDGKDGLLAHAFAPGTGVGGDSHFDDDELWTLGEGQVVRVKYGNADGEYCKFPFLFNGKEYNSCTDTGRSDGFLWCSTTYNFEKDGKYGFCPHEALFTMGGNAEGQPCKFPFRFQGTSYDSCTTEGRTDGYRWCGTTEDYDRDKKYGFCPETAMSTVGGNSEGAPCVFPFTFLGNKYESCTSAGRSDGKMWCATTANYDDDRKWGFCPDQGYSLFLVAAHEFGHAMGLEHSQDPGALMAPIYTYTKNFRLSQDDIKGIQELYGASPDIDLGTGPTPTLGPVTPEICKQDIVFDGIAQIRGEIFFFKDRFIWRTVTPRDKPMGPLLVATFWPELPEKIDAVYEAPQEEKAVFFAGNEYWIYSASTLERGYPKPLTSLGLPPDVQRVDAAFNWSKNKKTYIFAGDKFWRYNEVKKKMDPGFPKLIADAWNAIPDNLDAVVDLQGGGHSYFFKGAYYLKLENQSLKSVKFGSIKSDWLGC
# Prothrombin = Prothrombin (Bos taurus, UniProt P00735); assay: thrombin protease inhibitors – biochemical, fluorescence polarization, uHTS hits, dose response (AID 602369); type: functional
# [9] = molecular target: T2, Histone-lysine N-methyltransferase NSD2 (Homo sapiens, UniProt O96028); type: biochemical
# T2 sequence (O96028 whole entry): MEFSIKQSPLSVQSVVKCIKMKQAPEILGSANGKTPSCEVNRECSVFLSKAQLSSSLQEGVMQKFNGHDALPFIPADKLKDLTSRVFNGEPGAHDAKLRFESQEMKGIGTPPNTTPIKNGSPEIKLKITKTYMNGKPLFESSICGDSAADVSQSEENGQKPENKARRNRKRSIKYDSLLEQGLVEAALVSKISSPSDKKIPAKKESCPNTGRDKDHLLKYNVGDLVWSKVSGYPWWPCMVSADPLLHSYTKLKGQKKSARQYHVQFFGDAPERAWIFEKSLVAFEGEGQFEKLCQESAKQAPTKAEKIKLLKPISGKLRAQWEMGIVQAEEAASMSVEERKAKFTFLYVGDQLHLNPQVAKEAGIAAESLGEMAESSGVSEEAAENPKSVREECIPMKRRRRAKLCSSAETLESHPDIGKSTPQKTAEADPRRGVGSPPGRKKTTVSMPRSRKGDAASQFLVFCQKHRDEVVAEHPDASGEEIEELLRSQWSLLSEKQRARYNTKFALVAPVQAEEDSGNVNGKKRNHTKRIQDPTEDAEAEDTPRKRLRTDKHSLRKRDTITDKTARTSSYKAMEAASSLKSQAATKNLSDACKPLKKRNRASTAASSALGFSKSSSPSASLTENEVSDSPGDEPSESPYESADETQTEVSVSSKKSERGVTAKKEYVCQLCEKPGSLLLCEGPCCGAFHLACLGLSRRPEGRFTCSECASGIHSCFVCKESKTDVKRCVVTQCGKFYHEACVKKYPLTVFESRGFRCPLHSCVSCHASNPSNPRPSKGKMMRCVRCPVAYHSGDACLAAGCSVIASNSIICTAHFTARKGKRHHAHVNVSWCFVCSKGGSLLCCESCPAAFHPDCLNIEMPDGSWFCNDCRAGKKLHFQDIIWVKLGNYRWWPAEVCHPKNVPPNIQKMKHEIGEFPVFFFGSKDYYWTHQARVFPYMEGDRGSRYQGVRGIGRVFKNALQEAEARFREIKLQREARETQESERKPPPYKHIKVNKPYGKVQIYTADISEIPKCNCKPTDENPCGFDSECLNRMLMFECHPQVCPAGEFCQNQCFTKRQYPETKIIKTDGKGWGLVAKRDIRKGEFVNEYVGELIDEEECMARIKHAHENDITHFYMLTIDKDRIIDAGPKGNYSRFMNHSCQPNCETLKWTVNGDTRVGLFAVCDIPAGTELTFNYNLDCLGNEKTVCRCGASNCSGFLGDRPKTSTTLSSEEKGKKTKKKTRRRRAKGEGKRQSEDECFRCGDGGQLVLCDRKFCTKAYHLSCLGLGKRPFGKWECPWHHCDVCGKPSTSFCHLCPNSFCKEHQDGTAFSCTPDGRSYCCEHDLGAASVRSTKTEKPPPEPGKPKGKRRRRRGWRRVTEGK
# [10] = molecular target: Melanin-concentrating hormone receptor 1 (Homo sapiens, UniProt Q99705); assay: Late-stage fluorescence-based counterscreen for antagonists of the G-protein coupled receptor 7 (GPR7): cell-based dose response assay to identify antagonists of the melanin-concentrating hormone receptor 1 (MCHR1) Set 6.; type: functional
# Melanin-concentrating hormone receptor 1, sequence (Q99705 whole entry): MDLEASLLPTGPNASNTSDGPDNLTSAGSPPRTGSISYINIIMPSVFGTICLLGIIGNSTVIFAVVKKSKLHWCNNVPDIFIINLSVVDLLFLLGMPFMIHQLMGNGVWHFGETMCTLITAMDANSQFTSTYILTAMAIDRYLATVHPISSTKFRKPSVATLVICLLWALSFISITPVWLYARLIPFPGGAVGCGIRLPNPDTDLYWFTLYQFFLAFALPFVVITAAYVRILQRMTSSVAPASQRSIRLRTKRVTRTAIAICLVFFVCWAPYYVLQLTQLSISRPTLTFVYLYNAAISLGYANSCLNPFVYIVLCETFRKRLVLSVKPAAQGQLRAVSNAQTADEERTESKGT
# [11] = molecular target: Neuropeptides B/W receptor type 1 (Homo sapiens, UniProt P48145); assay: human NPBW1 receptor blockade, IC50 – cell-based, fluorescence, dose response, set 6, late-stage follow-up (AID 588583); type: functional
# [12] = THP-1 cell cytotoxicity, cytotoxicity control, set 5 (AID 588443); type: functional
# Large T antigen, sequence (P03070 whole entry): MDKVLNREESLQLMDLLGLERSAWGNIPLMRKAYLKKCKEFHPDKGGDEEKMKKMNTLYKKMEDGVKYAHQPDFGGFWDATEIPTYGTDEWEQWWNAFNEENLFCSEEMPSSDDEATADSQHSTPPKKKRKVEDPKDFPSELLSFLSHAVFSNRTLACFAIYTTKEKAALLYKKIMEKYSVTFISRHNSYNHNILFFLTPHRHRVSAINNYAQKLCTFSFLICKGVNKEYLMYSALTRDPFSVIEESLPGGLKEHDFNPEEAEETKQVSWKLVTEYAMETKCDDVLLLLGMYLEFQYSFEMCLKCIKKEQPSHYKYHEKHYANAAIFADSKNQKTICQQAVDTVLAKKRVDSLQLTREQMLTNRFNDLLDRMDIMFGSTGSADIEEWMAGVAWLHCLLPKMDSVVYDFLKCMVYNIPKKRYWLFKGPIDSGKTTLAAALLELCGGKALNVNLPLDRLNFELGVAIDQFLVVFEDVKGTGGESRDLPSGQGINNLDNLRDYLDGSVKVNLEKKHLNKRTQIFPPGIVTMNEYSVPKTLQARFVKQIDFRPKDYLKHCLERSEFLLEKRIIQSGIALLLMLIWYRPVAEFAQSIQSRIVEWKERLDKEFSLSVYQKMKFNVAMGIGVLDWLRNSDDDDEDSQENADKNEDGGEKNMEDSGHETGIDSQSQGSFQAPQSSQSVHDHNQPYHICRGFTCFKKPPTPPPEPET
smiles,measurement,setting,value
O=C(O)C(c1ccccc1)N1C(=O)/C(=C\c2ccc(O)c(O)c2)SC1=S (centres undefined),IC50,Large T antigen,7.85 µM (active)
same,EC50,[1],59.1 µM (active)
same,AC50,[2],0.208 µM (active)
same,EC50,[3],61 µM (active)
same,EC50,[4],24.1 µM (active)
same,EC50,[5],2.72 µM (active)
same,EC50,[6],4.78 µM (active)
same,IC50,[7],26.3 µM (active)
same,IC50,[8],39.7 µM (active)
same,IC50,Prothrombin,30.7 µM (active)
same,AC50,[9],4.05 µM (active)
CCOc1ccc(C(C#N)c2c(Cl)cnn(Cc3cccc4ccccc34)c2=O)c(F)c1F (centres undefined),IC50,[10],0.601 µM (active)
same,IC50,[11],0.601 µM (active)
CC1CC(C)CN(C(=O)C2CCC(CNc3c(N4CCCCC4)c(=O)c3=O)CC2)C1 (centres undefined),CC50,[12],> 30 µM (inconclusive)
